Assay results: patent US9701958B2, “Method for selecting polynucleotides encoding antigen-specific immunoglobulin subunits” (priority 2012, dated 2017)
Where two headings read alike, the source gives them in different places.

How the values were obtained:
wild-type vaccinia virus = type: cell-based
VHE H5 HX-A56R NEO = type: cell-based, vaccinia virus

## CN[C@@H]1[C@@H](O)[C@@H](O[C@@H]2[C@@H](O)[C@H](O[C@H]3O[C@H]([C@@H](C)O)[C@@H](O)[C@H](O)[C@H]3N)[C@@H](N)C[C@H]2N)OC[C@]1(C)O [G418]
wild-type vaccinia virus; 0.125 to 2 mg/ml of G418, in words
  inhibition of amplification of wild-type vaccinia virus: significantly inhibited
wild-type vaccinia virus; G418 0.125 mg/ml
  % Inhibition: 60.8%
  Titer: 1.58E+07
wild-type vaccinia virus; G418 0.25 mg/ml
  % Inhibition: 79.4%
  Titer: 8.26E+06
wild-type vaccinia virus; G418 0.5 mg/ml
  % Inhibition: 93.7%
  Titer: 2.54E+06
wild-type vaccinia virus; G418 1 mg/ml
  % Inhibition: 96.6%
  Titer: 1.36E+06
wild-type vaccinia virus; G418 2 mg/ml
  % Inhibition: 99.6%
  Titer: 1.59E+05
VHE H5 HX-A56R NEO
  inhibition of amplification of vaccinia virus expressing heavy chain linked to a neomycin resistance marker: no inhibition effect
VHE H5 HX-A56R NEO; G418 0.125 mg/ml
  % Inhibition: −26.7%
  Titer: 2.88E+07
VHE H5 HX-A56R NEO; G418 0.25 mg/ml
  % Inhibition: −36.7%
  Titer: 3.11E+07
VHE H5 HX-A56R NEO; G418 0.5 mg/ml
  % Inhibition: −50.0%
  Titer: 3.41E+07
VHE H5 HX-A56R NEO; G418 1 mg/ml
  % Inhibition: −40.0%
  Titer: 3.18E+07
VHE H5 HX-A56R NEO; G418 2 mg/ml
  % Inhibition: −33.3%
  Titer: 3.03E+07
